From patent US8841332B2, “Fungicidal N-(2-phenoxyethyl)carboxamide derivatives and their aza, thia and sila analogues” (Bayer Intellectual Property GmbH, priority 2008, dated 2014)

Assay: logP determination by HPLC on a reversed-phase column (C 18), EEC Directive 79/831 Annex V.A8
Type: physicochemical
Conditions: HPLC reversed-phase C 18, 40° C., 0.1% aqueous formic acid and acetonitrile, gradient 10% to 90% acetonitrile
Description: In the table 1, the logP values were determined in accordance with EEC Directive 79/831 Annex V.A8 by HPLC (High Performance Liquid Chromatography) on a reversed-phase column (C 18), using the method described below: Temperature: 40° C.; Mobile phases: 0.1% aqueous formic acid and acetonitrile; linear gradient from 10% acetonitrile to 90% acetonitrile. Calibration was carried out using unbranched alkan-2-ones (comprising 3 to 16 carbon atoms) with known logP values (determination of the logP values by the retention times using linear interpolation between two successive alkanones).

Cn1cc(C(=O)N(CCOc2c(Cl)cc(Cl)cc2Cl)C2CCCC2)c(C(F)F)n1 [Example 24]
logP: 4.72

CC(COc1ccc(Cl)cc1Cl)N(C(=O)c1cn(C)nc1I)C1CC1 (centres unmarked) [Example 19]
logP: 3.78
